Results on 15 molecules are retold here after patent publication US8987256B2, “Oxo-heterocyclic substituted carboxylic acid derivatives and the use thereof” (Bayer Intellectual Property GmbH, priority 2008, dated 2015).

For test [1], the target named is T1, recombinant guanylate cyclase reporter cell line (Rattus norvegicus, UniProt P20595).
T1 construct: expressed in transfected cells; host or cells: CHO reporter cell line
T1 sequence (P20595 1-619): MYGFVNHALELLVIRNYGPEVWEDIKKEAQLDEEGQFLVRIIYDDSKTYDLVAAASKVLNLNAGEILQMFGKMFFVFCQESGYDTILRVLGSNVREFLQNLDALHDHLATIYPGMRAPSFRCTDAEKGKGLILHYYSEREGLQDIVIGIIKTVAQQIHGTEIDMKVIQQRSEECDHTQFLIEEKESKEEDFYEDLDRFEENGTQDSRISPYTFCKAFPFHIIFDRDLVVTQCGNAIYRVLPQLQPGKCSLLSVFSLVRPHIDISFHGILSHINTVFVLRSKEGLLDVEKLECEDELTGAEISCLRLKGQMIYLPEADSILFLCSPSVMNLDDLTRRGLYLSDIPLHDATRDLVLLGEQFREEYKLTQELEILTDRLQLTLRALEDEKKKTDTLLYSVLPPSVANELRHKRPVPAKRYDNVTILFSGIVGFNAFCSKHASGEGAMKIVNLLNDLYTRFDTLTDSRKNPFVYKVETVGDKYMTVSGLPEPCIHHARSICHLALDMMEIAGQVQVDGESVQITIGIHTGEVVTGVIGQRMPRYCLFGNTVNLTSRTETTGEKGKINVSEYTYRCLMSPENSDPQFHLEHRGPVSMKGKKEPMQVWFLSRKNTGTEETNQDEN
T1 sequence (P19686 1-690 partner): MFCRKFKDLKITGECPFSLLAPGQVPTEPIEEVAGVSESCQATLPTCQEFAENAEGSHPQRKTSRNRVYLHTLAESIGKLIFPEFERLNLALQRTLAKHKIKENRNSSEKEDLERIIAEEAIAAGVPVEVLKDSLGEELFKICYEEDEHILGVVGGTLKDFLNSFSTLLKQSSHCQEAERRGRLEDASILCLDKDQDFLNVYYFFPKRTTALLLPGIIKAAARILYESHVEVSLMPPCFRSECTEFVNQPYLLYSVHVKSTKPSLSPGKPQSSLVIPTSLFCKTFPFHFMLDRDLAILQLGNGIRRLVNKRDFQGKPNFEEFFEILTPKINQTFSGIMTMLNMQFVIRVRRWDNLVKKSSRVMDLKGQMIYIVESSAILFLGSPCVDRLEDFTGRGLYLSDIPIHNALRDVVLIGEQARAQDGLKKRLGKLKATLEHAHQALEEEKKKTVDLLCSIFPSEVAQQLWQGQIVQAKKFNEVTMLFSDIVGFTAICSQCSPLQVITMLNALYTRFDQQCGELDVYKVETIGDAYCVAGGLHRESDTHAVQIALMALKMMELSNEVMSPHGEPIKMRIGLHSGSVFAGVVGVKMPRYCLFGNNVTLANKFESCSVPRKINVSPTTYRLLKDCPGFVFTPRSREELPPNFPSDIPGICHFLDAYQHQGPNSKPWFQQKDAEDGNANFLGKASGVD
Nature of the test: sGC-activating activity in the CHO reporter cell in vitro. It is filed as cell-based. As to the method: The cellular action of the compounds according to the invention is determined at a recombinant guanylate cyclase reporter cell line, as described in F. Wunder et al., Anal. Biochem. 339, 104-112 (2005).

The target of test [2] is T2, soluble guanylate cyclase (sGC) (Rattus norvegicus, UniProt P20595).
T2 construct: made in house; host or cells: baculovirus/Sf9 insect cells
T2 sequence (P20595 1-619): T1 sequence (P20595 1-619)
T2 sequence (P19686 1-690 partner): T1 sequence (P19686 1-690 partner)
Kind of test: Activating action at the sGC enzyme in vitro (PPi detection, luciferase). It is filed as biochemical. The settings on record: for EC50: read-out: EC50 (concentration at 50% of maximum efficacy), activating action at the sGC enzyme. As to the method: Soluble guanylate cyclase (sGC) converts on stimulation GTP into cGMP and pyrophosphate (PPi). PPi is detected with the aid of the assay described below. The signal produced in the assay increases as the reaction progresses and serves as a measure of the sGC enzyme activity under the given stimulation.
To carry out the assay, 29 μl of enzyme solution [0-10 nM soluble guanylate cyclase (prepared according to Honicka et al., J. Mol. Med. 77, 14-23 (1999)) in 50 mM TEA, 2 mM MgCl2, 0.1% BSA (fraction V), 0.005% Brij®, pH 7.5] are initially introduced into a microplate, and 1 μl of the substance to be tested (as a serially diluted solution in DMSO) is added. The mixture is incubated at room temperature for 10 min. Then 20 μl of detection mix [1.2 nM Firefly Luciferase (Photinus pyralis luciferase, Promega), 29 μM dehydroluciferin (prepared according to Bitler & McElroy, Arch. Biochem. Biophys. 72, 358 (1957)), 122 μM luciferin (Promega), 153 μM ATP (Sigma) and 0.4 mM DTT (Sigma) in 50 mM TEA, 2 mM MgCl2, 0.1% BSA (fraction V), 0.005% Brij®, pH 7.5] are added. The enzyme reaction is started by adding 20 μl of substrate solution [1.25 mM guanosine 5′-triphosphate (Sigma) in 50 mM TEA, 2 mM MgCl2, 0.1% BSA (fraction V), 0.005% Brij®, pH 7.5] and measured continuously in a luminometer. The extent of the stimulation by the substance to be tested can be determined relative to the signal of the unstimulated reaction.
The activation of heme-free guanylate cyclase is examined by addition of 25 μM of 1H-1,2,4-oxadiazolo[4,3-a]quinoxalin-1-one (ODQ) to the enzyme solution and subsequent incubation for 30 minutes and compared to the stimulation of the native enzyme.

As to `CC(C(C(=O)Nc1cccc(CC2(C(=O)O)CC2)c1)c1ccc(Cn2nc(C(F)(F)F)ccc2=O)cc1)C(F)(F)F` (single isomer, unassigned) [Example 181, 1-(3-{[4,4,4-trifluoro-3-methyl-2-(4-{[6-oxo-3-(trifluoromethyl)pyridazin-1(6H)-yl]methyl}-phenyl)-butanoyl]amino}benzyl)cyclopropanecarboxylic acid], the “MEC (minimum effective concentration), sGC-activating activity in the CHO reporter cell” value (“MEC … in the CHO reporter cell” for short) in test [1] is 0.7 nM. Also, in test [2], the “MEC (minimum effective concentration), activating action at the sGC enzyme” value (“MEC … at the sGC enzyme” for short) worked out at 1.4 nM and the EC50 was 69 nM.

On to `O=C(Nc1cccc(CC2(C(=O)O)CC2)c1)C(c1ccc(CN2N=C(c3ccccc3)OCC2=O)cc1)C1CCC(F)(F)C1` (single isomer, unassigned) [Example 241, 1-(3-{[(3,3-Difluorocyclopentyl) {4-[(5-oxo-2-phenyl-5,6-dihydro-4H-1,3,4-oxadiazin-4-yl)-methyl]phenyl}acetyl]amino}benzyl)cyclopropanecarboxylic acid], for which the “MEC … in the CHO reporter cell” value in test [1] amounted to 3 nM. In test [2], the “MEC … at the sGC enzyme” value is listed as 1.2 nM and the EC50 was 17 nM.

For `CCC(C(C(=O)Nc1cccc(CC2(C(=O)O)CC2)c1)c1ccc(CN2N=C(c3ccccc3)OCC2=O)cc1)C(F)(F)F` (stereo not drawn) [Example 170, 1-(3-{[2-{4-[(5-oxo-2-phenyl-5,6-dihydro-4H-1,3,4-oxadiazin-4-yl)methyl]phenyl}-3-(trifluoromethyl)-pentanoyl]amino}benzyl)cyclopropanecarboxylic acid], the “MEC … in the CHO reporter cell” value in test [1] came out at 3 nM. Moreover, in test [2], the “MEC … at the sGC enzyme” value was found to be 1 nM and the EC50 came out at 11 nM.

Regarding `Cc1ccc(=O)n(Cc2ccc(C(C(=O)Nc3cccc(CC4(C(=O)O)CC4)c3)C3CCCC3)cc2)n1` (stereo not drawn) [Example 171, 1-{3-[(cyclopentyl{4-[(3-methyl-6-oxopyridazin-1(6H)-yl)methyl]phenyl}acetyl)amino]benzyl}-cyclopropanecarboxylic acid], in test [1], the “MEC … in the CHO reporter cell” value is given as 30 nM. Also, in test [2], the “MEC … at the sGC enzyme” value is listed as 3.7 nM and the EC50 is 59 nM.

Regarding `O=C(Nc1cccc(CC2(C(=O)O)CC2)c1)C(c1ccc(Cn2ccc(C(F)(F)F)cc2=O)cc1)C1CCCC1` (stereo not drawn) [Example 176, 1-(3-{[cyclopentyl(4-{[2-oxo-4-(trifluoromethyl)-pyridin-1(2H)-yl]methyl}phenyl)acetyl]amino}-benzyl)cyclopropanecarboxylic acid], the “MEC … in the CHO reporter cell” value in test [1] turned out to be 30 nM. Besides, in test [2], the “MEC … at the sGC enzyme” value worked out at 10 nM and the EC50 was found to be 320 nM.

On to `CC(C(C(=O)Nc1cccc(CCC(=O)O)c1Cl)c1ccc(CN2N=C(c3ccccc3)OCC2=O)cc1)C(F)(F)F` (stereo not drawn) [Example 184, 3-{2-chloro-3-[(4,4,4-trifluoro-3-methyl-2-{4-[(5-oxo-2-phenyl-5,6-dihydro-4H-1,3,4-oxadiazin-4-yl)methyl]-phenyl}butanoyl)amino]phenyl}propanoic acid], for which the “MEC … in the CHO reporter cell” value in test [1] is on record as 3 nM. Also, in test [2], the “MEC … at the sGC enzyme” value is recorded as 7 nM and the EC50 is 240 nM.

For `C[C@H]([C@H](C(=O)Nc1cccc(CC2(C(=O)O)CC2)c1)c1ccc(CN2Cc3ccccc3C2=O)cc1)C(F)(F)F` [Example 207], in test [1], the “MEC … in the CHO reporter cell” value came out at 3 nM. In test [2], the “MEC … at the sGC enzyme” value came to 0.5 nM and the EC50 was 11 nM.

For `O=C(Nc1cccc(CC2(C(=O)O)CC2)c1)C(c1ccc(CN2Cc3c(F)cccc3C2=O)cc1)C1CCCC1` (stereo not drawn) [Example 213], the “MEC … in the CHO reporter cell” value in test [1] stood at 3 nM. In addition, in test [2], the “MEC … at the sGC enzyme” value was 1.2 nM and the EC50 came to 24 nM.

For `C[C@H]([C@H](C(=O)Nc1cccc(CC2(C(=O)O)CC2)c1)c1ccc(CN2Cc3c(F)cccc3C2=O)cc1)C(F)(F)F` [Example 219], the “MEC … in the CHO reporter cell” value in test [1] was 0.2 nM. In test [2], the “MEC … at the sGC enzyme” value worked out at 0.2 nM and the EC50 amounted to 3.6 nM.

Turning to `C[C@@H]([C@@H](C(=O)Nc1cccc(CC2(C(=O)O)CC2)c1)c1ccc(CN2Cc3c(F)cccc3C2=O)cc1)C(F)(F)F` [Example 220], in test [1], the “MEC … in the CHO reporter cell” value came to 0.3 nM. In addition, in test [2], the “MEC … at the sGC enzyme” value came out at 2 nM and the EC50 turned out to be 75 nM.

Consider `O=C(O)CCc1cc(F)cc(NC(=O)C(c2ccc(CN3N=C(c4ccccc4)OCC3=O)cc2)C2CCCC2)c1` (stereo not drawn) [Example 230], for which, in test [1], the “MEC … in the CHO reporter cell” value came out at 30 nM. In test [2], the “MEC … at the sGC enzyme” value turned out to be 8.1 nM and the EC50 is 420 nM.

Consider `O=C(Nc1cc(CC2(C(=O)O)CC2)ccc1F)C(c1ccc(CN2N=C(c3ccccc3)OCC2=O)cc1)C1CCCC1` (stereo not drawn) [Example 231], for which, in test [1], the “MEC … in the CHO reporter cell” value is recorded as 0.2 nM. Further, in test [2], the “MEC … at the sGC enzyme” value was 0.4 nM and the EC50 was determined as 5.2 nM.

Take `O=C(O)CCc1cc(NC(=O)C(c2ccc(CN3N=C(c4ccccc4)OCC3=O)cc2)C2CCCC2)ccc1F` (stereo not drawn) [Example 232]: the “MEC … in the CHO reporter cell” value in test [1] is on record as 20 nM. Moreover, in test [2], the “MEC … at the sGC enzyme” value came to 93 nM and the EC50 was determined as 1100 nM.

On to `O=C(Nc1cccc(CC2(C(=O)O)CC2)c1F)C(c1ccc(CN2N=C(c3ccccc3)OCC2=O)cc1)C1CCCC1` (stereo not drawn) [Example 233], for which the “MEC … in the CHO reporter cell” value in test [1] was determined as 0.3 nM. In test [2], the “MEC … at the sGC enzyme” value amounted to 3.3 nM and the EC50 was 78 nM.

In the case of `O=C(Nc1ccc(F)c(CC2(C(=O)O)CC2)c1)C(c1ccc(CN2N=C(c3ccccc3)OCC2=O)cc1)C1CCCC1` (stereo not drawn) [Example 234], in test [1], the “MEC … in the CHO reporter cell” value came to 1 nM. For the same molecule, in test [2], the “MEC … at the sGC enzyme” value is on record as 4.1 nM and the EC50 worked out at 220 nM.
